ChEMBL document CHEMBL1240334, “Molecular basis of cyclin-CDK-CKI regulation by reversible binding of an inositol pyrophosphate” (Nat Chem Biol, 2008)
Blank lines part the entries; values can stand above or below the compound they belong to. The source made the active and inactive calls. The rule behind the calls is not given here.

Experiments:
[1] = biological target: T1, Phosphate system positive regulatory protein PHO81 (Saccharomyces cerevisiae S288c, UniProt P17442); experiment: Inhibition of Saccharomyces cerevisiae Pho81-MD-dependent Pho80-Pho85 activity after 10 mins
T1 sequence (P17442 whole entry): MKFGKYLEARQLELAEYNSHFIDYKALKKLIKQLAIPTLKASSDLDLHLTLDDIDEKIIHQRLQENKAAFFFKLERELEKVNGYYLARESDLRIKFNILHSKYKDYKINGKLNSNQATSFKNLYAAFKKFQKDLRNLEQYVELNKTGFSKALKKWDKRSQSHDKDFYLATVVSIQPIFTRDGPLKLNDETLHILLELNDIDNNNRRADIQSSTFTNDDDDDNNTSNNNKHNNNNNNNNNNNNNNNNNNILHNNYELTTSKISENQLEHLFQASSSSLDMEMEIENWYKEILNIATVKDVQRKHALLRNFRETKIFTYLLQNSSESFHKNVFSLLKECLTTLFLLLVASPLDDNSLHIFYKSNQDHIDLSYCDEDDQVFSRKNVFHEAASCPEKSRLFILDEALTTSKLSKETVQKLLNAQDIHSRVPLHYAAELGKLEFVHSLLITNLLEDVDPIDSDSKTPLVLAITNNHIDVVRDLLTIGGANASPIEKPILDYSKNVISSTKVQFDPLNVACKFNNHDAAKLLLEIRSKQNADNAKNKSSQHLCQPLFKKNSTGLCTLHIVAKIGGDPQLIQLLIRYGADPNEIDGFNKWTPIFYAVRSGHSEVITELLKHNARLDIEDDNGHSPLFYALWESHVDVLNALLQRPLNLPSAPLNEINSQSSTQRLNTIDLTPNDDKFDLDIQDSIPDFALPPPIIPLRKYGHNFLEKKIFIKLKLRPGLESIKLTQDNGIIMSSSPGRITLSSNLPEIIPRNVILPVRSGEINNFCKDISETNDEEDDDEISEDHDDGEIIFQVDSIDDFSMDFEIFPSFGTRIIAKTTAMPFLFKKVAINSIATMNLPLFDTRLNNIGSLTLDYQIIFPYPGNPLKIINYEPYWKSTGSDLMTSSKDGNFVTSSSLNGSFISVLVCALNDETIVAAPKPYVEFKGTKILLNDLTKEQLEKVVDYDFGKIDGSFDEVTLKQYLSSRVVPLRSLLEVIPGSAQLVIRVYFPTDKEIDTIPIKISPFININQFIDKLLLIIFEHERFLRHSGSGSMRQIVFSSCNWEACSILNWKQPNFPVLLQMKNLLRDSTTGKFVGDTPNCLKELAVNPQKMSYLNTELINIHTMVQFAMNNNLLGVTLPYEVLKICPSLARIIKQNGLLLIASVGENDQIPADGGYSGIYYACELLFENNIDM

[2] = biological target: T2, Pho80/Pho85 (Saccharomyces cerevisiae S288c) (UniProt P17157+P20052); experiment: Binding affinity of Pho81-MD S1-segment to Saccharomyces cerevisiae Pho80-Pho85; type: protein-complex assay
[3] = biological target: T2, Pho80/Pho85 (Saccharomyces cerevisiae S288c); experiment: Binding affinity of Pho81-MD S2-segment to Saccharomyces cerevisiae Pho80-Pho85; type: protein-complex assay
[4] = biological target: T3, Pho80/Pho85/Pho81 complex (Saccharomyces cerevisiae S288c, UniProt P17157+P17442+P20052); experiment: Competitive inhibition of Saccharomyces cerevisiae Pho80-Pho85-Pho81-MD catalyzed phosphorylation of Pho4 assessed as increase in substrate concentration by line-weaverberk plot assay; type: protein-complex assay
T3 sequence (P17157 whole entry, one chain of several): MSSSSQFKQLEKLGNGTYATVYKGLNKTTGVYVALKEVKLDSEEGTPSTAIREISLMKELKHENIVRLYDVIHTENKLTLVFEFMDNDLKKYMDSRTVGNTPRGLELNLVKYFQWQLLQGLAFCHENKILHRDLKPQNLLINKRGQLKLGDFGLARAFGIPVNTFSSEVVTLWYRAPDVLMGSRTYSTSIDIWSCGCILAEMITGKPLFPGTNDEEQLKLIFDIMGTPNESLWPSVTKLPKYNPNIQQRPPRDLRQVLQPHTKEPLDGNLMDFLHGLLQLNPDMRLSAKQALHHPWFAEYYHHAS
T3 sequence (P20052 whole entry, one chain of several): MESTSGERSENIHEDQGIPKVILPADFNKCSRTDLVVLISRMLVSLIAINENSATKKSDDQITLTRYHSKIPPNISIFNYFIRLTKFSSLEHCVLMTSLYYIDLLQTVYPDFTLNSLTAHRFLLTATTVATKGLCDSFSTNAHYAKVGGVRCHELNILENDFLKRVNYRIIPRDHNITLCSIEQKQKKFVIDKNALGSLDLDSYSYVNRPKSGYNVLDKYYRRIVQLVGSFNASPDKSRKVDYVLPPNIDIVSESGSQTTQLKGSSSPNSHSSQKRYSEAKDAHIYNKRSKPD

[5] = biological target: T4, Pho80/Pho85/Pho81 complex (Saccharomyces cerevisiae S288c) (UniProt P17157+P17442+P20052); experiment: Inhibition of Saccharomyces cerevisiae Pho80-Pho85-Pho81-MD catalyzed phosphorylation of Pho4 D175V distal-site mutant; type: protein-complex assay
[6] = biological target: T3, Pho80/Pho85/Pho81 complex; experiment: Inhibition of Saccharomyces cerevisiae Pho80-Pho85-Pho81-MD catalyzed phosphorylation of Pho4-site 6 peptide; type: protein-complex assay
[7] = biological target: T2, Pho80/Pho85 (Saccharomyces cerevisiae S288c); experiment: Binding affinity of […]-labeled Pho81-MD to Saccharomyces cerevisiae Pho80-Pho85 by fluorescence binding assay relative to untreated control; type: protein-complex assay
[8] = biological target: T2, Pho80/Pho85 (Saccharomyces cerevisiae S288c); experiment: Inhibition of Saccharomyces cerevisiae Pho80-Pho85 at 50 uM in presence of > 10 uM Pho81-MD; type: protein-complex assay
[9] = biological target: T2, Pho80/Pho85 (Saccharomyces cerevisiae S288c); experiment: Inhibition of Saccharomyces cerevisiae Pho80-Pho85 at 100 uM in presence of > 10 uM Pho81-MD; type: protein-complex assay
[10] = biological target: T4, Pho80/Pho85/Pho81 complex (Saccharomyces cerevisiae S288c); experiment: Inhibition of Saccharomyces cerevisiae Pho80-Pho85-Pho81-MD catalyzed phosphorylation of wild type Pho4 distal-site assessed as increase in substrate concentration; type: protein-complex assay
[11] = biological target: T4, Pho80/Pho85/Pho81 complex (Saccharomyces cerevisiae S288c); experiment: Inhibition of Saccharomyces cerevisiae Pho80-Pho85-Pho81-MD catalyzed phosphorylation of Pho4 I22T distal-site mutant assessed as increase in substrate concentration; type: protein-complex assay
[12] = biological target: T4, Pho80/Pho85/Pho81 complex (Saccharomyces cerevisiae S288c); experiment: Inhibition of Saccharomyces cerevisiae Pho80-Pho85-Pho81-MD catalyzed phosphorylation of Pho4 F29I distal-site mutant assessed as increase in substrate concentration; type: protein-complex assay
[13] = biological target: T4, Pho80/Pho85/Pho81 complex (Saccharomyces cerevisiae S288c); experiment: Inhibition of Saccharomyces cerevisiae Pho80-Pho85-Pho81-MD catalyzed phosphorylation of Pho4 P174L distal-site mutant assessed as increase in substrate concentration; type: protein-complex assay
[14] = biological target: T4, Pho80/Pho85/Pho81 complex (Saccharomyces cerevisiae S288c); experiment: Inhibition of Saccharomyces cerevisiae Pho80-Pho85-Pho81-MD catalyzed phosphorylation of Pho4 S176N distal-site mutant assessed as increase in substrate concentration; type: protein-complex assay
[15] = biological target: T4, Pho80/Pho85/Pho81 complex (Saccharomyces cerevisiae S288c); experiment: Displacement of [32P]-labeled 6-inositol heptakisphosphate from Pho80-Pho85-Pho81-MD complex in Saccharomyces cerevisiae at 400 uM at 30 degC by electrophoretic mobility shift assay; type: protein-complex assay; conditions: tested as the 32P-labelled form
[16] = biological target: T4, Pho80/Pho85/Pho81 complex (Saccharomyces cerevisiae S288c); experiment: Displacement of [32P]-labeled 6-inositol heptakisphosphate from Pho80-Pho85-Pho81-MD complex in Saccharomyces cerevisiae at 400 uM at 4 degC by electrophoretic mobility shift assay; type: protein-complex assay; conditions: tested as the 32P-labelled form
[17] = biological target: T4, Pho80/Pho85/Pho81 complex (Saccharomyces cerevisiae S288c); experiment: Displacement of myo-inositol hexakisphosphate from Pho80-Pho85-Pho81-MD complex in Saccharomyces cerevisiae at 0.2 uM 30 mins by electrophoretic mobility shift assay; type: protein-complex assay
[18] = biological target: T4, Pho80/Pho85/Pho81 complex (Saccharomyces cerevisiae S288c); experiment: Binding affinity to Saccharomyces cerevisiae Pho80-Pho85-Pho81-MD complex at 400 uM after 30 mins at 30 degC by electrophoretic mobility shift assay; type: protein-complex assay
[19] = biological target: T4, Pho80/Pho85/Pho81 complex (Saccharomyces cerevisiae S288c); experiment: Binding affinity to Saccharomyces cerevisiae Pho80-Pho85-Pho81-MD complex at 400 uM after 30 mins at 4 degC by electrophoretic mobility shift assay; type: protein-complex assay
[20] = biological target: T4, Pho80/Pho85/Pho81 complex (Saccharomyces cerevisiae S288c); experiment: Displacement of [32P]-labeled 4-inositol heptakisphosphate from Pho80-Pho85-Pho81-MD complex in Saccharomyces cerevisiae at 400 uM 30 mins at 30 degC by electrophoretic mobility shift assay; type: protein-complex assay; conditions: tested as the 32P-labelled form
[21] = biological target: T4, Pho80/Pho85/Pho81 complex (Saccharomyces cerevisiae S288c); experiment: Displacement of [32P]-labeled 4-inositol heptakisphosphate from Pho80-Pho85-Pho81-MD complex in Saccharomyces cerevisiae at 400 uM 30 mins at 4 degC by electrophoretic mobility shift assay; type: protein-complex assay; conditions: tested as the 32P-labelled form
[22] = biological target: T4, Pho80/Pho85/Pho81 complex (Saccharomyces cerevisiae S288c); experiment: Binding affinity to Saccharomyces cerevisiae Pho80-Pho85-Pho81-MD complex at 0.2 uM after 30 mins by electrophoretic mobility shift assay in presence of 6mM MgCl2; type: protein-complex assay; conditions: tested as the 32P-labelled form
[23] = biological target: T4, Pho80/Pho85/Pho81 complex (Saccharomyces cerevisiae S288c); experiment: Binding affinity to Saccharomyces cerevisiae Pho80-Pho85-Pho81-MD complex at 0.2 uM after 30 mins by electrophoretic mobility shift assay in presence of 6mM MnCl2; type: protein-complex assay; conditions: tested as the 32P-labelled form
[24] = biological target: T4, Pho80/Pho85/Pho81 complex (Saccharomyces cerevisiae S288c); experiment: Binding affinity to Saccharomyces cerevisiae Pho80-Pho85-Pho81-MD complex at 0.2 uM after 30 mins by electrophoretic mobility shift assay in presence of 6mM CaCl2; type: protein-complex assay; conditions: tested as the 32P-labelled form
[25] = biological target: T3, Pho80/Pho85/Pho81 complex; experiment: Binding affinity to Saccharomyces cerevisiae Pho80-Pho85-Pho81-MD complex from 2uM to 80 uM after 30 mins by electrophoretic mobility shift assay in presence of 6 mM MgCl2; type: protein-complex assay; conditions: read-out: Kd(app)
[26] = biological target: T4, Pho80/Pho85/Pho81 complex (Saccharomyces cerevisiae S288c); experiment: Displacement of 5-Inositol heptakisphosphate from Pho80-Pho85-Pho81-MD complex in Saccharomyces cerevisiae at 0.2 uM 30 mins by electrophoretic mobility shift assay; type: protein-complex assay
[27] = biological target: T1, Phosphate system positive regulatory protein PHO81; experiment: Inhibition of Saccharomyces cerevisiae Pho81-MD-dependent Pho80-Pho85 activity after 30 mins
[28] = biological target: T1, Phosphate system positive regulatory protein PHO81; experiment: Inhibition of Saccharomyces cerevisiae Pho81-MD-MD dependent Pho80-Pho85 activity after 60 mins
[29] = biological target: T1, Phosphate system positive regulatory protein PHO81; experiment: Inhibition of Saccharomyces cerevisiae Pho81-MD-MD dependent Pho80-Pho85 activity after 120 mins
[30] = biological target: T4, Pho80/Pho85/Pho81 complex (Saccharomyces cerevisiae S288c); experiment: Binding affinity to Saccharomyces cerevisiae Pho80-Pho85-Pho81-MD complex at 0.2 uM after 30 mins by electrophoretic mobility shift assay in presence of 6 mM ZnSO4; type: protein-complex assay; conditions: tested as the 32P-labelled form
[31] = biological target: T4, Pho80/Pho85/Pho81 complex (Saccharomyces cerevisiae S288c); experiment: Binding affinity to Saccharomyces cerevisiae Pho80-Pho85-Pho81-MD complex at 0.2 uM after 30 mins at by electrophoretic mobility shift assay; conditions: tested as the 32P-labelled form

IC50 [1]: 23 µM | Activity [2]: Active | Activity [3]: inactive | Ki [4]: 19 µM | inhibition [5]: Active | IC50 [6]: 25 µM | fold change (FC) [7]: 5 | Activity [8]: inactive | Activity [9]: inactive | inhibition [10]: Active | inhibition [11]: Active | inhibition [12]: Active | inhibition [13]: Active | inhibition [14]: Active | Activity [15]: Active | Activity [16]: inactive | Activity [17]: Active | Activity [18]: inactive | Activity [19]: inactive | Activity [20]: Active | Activity [21]: inactive | Activity [22]: Active | Activity [23]: Active | Activity [24]: inactive | Kd [25]: 20.3 µM | Activity [26]: Active | IC50 [27]: 14 µM | IC50 [28]: 31 µM | IC50 [29]: 22 µM | Activity [30]: Active | Activity [31]: inactive
Structure (SMILES): O=P(O)(O)O[C@H]1[C@@H](OP(=O)(O)O)[C@@H](OP(=O)(O)O)[C@H](OP(=O)(O)OP(=O)(O)O)[C@@H](OP(=O)(O)O)[C@@H]1OP(=O)(O)O

Activity [7]: inactive
Structure (SMILES): O=P(O)(O)O[C@H]1[C@@H](OP(=O)(O)O)[C@H](OP(=O)(O)O)[C@@H](OP(=O)(O)OP(=O)(O)O)[C@H](OP(=O)(O)O)[C@H]1OP(=O)(O)O
